The test system of data set [1] is Escherichia coli. The data set can be described thus: Inhibition of protein biosynthesis in Escherichia coli ATCC 25922 assessed as incorporation of [35S]methionine into protein at 2.5 ug/300 ul by in-vivo translation assay. The data set is classed as functional, organism-based.
The test system of data set [2] is Escherichia coli. Description: Antimicrobial activity against Escherichia coli ATCC 35218 by broth microdilution assay. The data set is classed as functional. A general note: Broth dilution looks for growth in wells or tubes with falling amounts of substance.
For data set [3], the system named is Escherichia coli. Description: In-vitro inhibition of luciferase reporter gene translation in Escherichia coli S30 extract at 200 ng by transcription/translation assay. Format: functional. A general note: A reporter such as luciferase makes a cellular process visible.
In data set [4] the test system is Escherichia coli. The data set can be described thus: Binding affinity to Escherichia coli His-tagged recombinant […] binding domain of DnaK assessed as rate constant by […] Plasmon resonance assay.
The subject of data set [5] is Salmonella typhi. The data set can be described thus: Antimicrobial activity against Salmonella typhi Vi+ by broth microdilution assay. Format: functional, Salmonella enterica subsp. enterica serovar Typhi. The conditions noted are these: Salmonella enterica.
In data set [6] the test system is Escherichia coli. Description: Antimicrobial activity against Escherichia coli ATCC 25922 by broth microdilution assay. The data set is classed as functional.
For data set [7], the system named is Escherichia coli. Description: Inhibition of protein biosynthesis in Escherichia coli ATCC 25922 assessed as incorporation of [35S]methionine into protein at 10 times of MIC concentration by in-vivo translation assay. Format: functional, organism-based.
Data set [8] can be described thus: Binding affinity to Escherichia coli His-tagged recombinant […] binding domain of DnaK by […] Plasmon resonance assay.
Data set [9] relates to Escherichia coli. The data set can be described thus: Antimicrobial activity against Escherichia coli ATCC 11775 by broth microdilution assay. The data set is classed as functional.
Data set [10] deals with Salmonella typhimurium. The data set can be described thus: Antimicrobial activity against Salmonella typhimurium ATCC 14028 by broth microdilution assay. The following applies: Salmonella enterica. Format: functional, Salmonella enterica subsp. enterica serovar Typhimurium.
The test system of data set [11] is Escherichia coli. Description: Drug uptake in Escherichia coli ATCC 25922 assessed as cellular internalization after 30 mins by FACS analysis. Format: ADME, organism-based. The conditions noted are these: in vivo, 0.5 h. A general note: Flow cytometry measures light scatter and fluorescence of single cells or particles in a stream.
In data set [12] the test system is Escherichia coli. Description: Inhibition of RNA biosynthesis in Escherichia coli ATCC 25922 assessed as incorporation of [3H]uridine into RNA at 10 times of MIC concentration by in-vivo transcription assay. The data set is classed as functional, organism-based.

The text below walks through data of ChEMBL document CHEMBL3407355, “Understanding the importance of glycosylated threonine and stereospecific action of Drosocin, a Proline rich antimicrobial peptide” (Eur J Med Chem, 2015).

≈ marks a conversion by molar mass, not a printed value. Calls of active or inactive are those of the source. No cut-off for these calls is given here. Where a SMILES comes first, the peptide text is derived from it. The star is where a group is joined. αGalNAc = CC(=O)N[C@@H]1[C@@H](O)[C@@H](O)[C@@H](CO)O[C@@H]1*; X1 = CC(=O)N[C@H]1[C@H](O)[C@H](O)[C@H](CO)O[C@H]1* Where only a bound is given, the exact number is not on record here.

Consider `CN(C)[C@@H]1C(O)=C(C(N)=O)C(=O)[C@@]2(O)C(O)=C3C(=O)c4c(O)cccc4[C@@](C)(O)[C@H]3C[C@@H]12`, for which, in [1], the inhibition result was “Active”.
With `CC[C@H](C)[C@H](NC(=O)[C@@H]1CCCN1C(=O)[C@H](CCCNC(=N)N)NC(=O)[C@@H]1CCCN1C(=O)[C@H](Cc1cnc[nH]1)NC(=O)[C@@H]1CCCN1C(=O)[C@@H]1CCCN1C(=O)[C@@H]1CCCN1C(=O)[C@H](CCCNC(=N)N)NC(=O)[C@@H]1CCCN1C(=O)[C@@H]1CCCN1C(=O)[C@H](Cc1ccc(O)cc1)NC(=O)[C@@H]1CCCN1C(=O)[C@H](CCCNC(=N)N)NC(=O)[C@@H]1CCCN1C(=O)[C@H](CCCCN)NC(=O)CN)C(=O)N[C@@H](CCCNC(=N)N)C(=O)N[C@H](C(=O)O)C(C)C`, the MIC (as a rule, the lowest concentration found to suppress growth) in data set [2] turned out to be 0.2 µM (≈ 0.443 µg/mL); in data set [5] it was 0.6 µM (≈ 1.33 µg/mL); in data set [6] it was 0.3 µM (≈ 0.664 µg/mL); in [9] it was 0.3 µM (≈ 0.664 µg/mL); in data set [10], 0.6 µM (≈ 1.33 µg/mL). Further, the inhibition result in [3] and in data set [7] was “Active” each time. The Ka in data set [4] came out at 2.45 ×10⁴ /M/s. In addition, the Kdiss in data set [4] turned out to be 0.0366 s⁻¹. Also, the dissociation constant Kd (as a rule, a measure of binding affinity in units of concentration) in data set [8] was 1490 nM.
As for `CC[C@H](C)[C@H](NC(=O)[C@@H]1CCCN1C(=O)[C@H](CCCNC(=N)N)NC(=O)[C@@H]1CCCN1C(=O)[C@H](Cc1cnc[nH]1)NC(=O)[C@H](CO)NC(=O)[C@H](CO[C@H]1O[C@H](CO)[C@H](O)[C@H](O)[C@H]1NC(C)=O)NC(=O)[C@@H]1CCCN1C(=O)[C@H](CCCNC(=N)N)NC(=O)[C@@H]1CCCN1C(=O)[C@H](CO)NC(=O)[C@H](Cc1ccc(O)cc1)NC(=O)[C@@H]1CCCN1C(=O)[C@H](CCCNC(=N)N)NC(=O)[C@@H]1CCCN1C(=O)[C@H](CCCCN)NC(=O)CN)C(=O)N[C@@H](CCCNC(=N)N)C(=O)N[C@H](C(=O)O)C(C)C` (H-GKPRPYSPRPS(αGalNAc)SHPRPIRV-OH), the MIC in data set [2] came to 0.5 µM (≈ 1.19 µg/mL); in data set [5], 5 µM (≈ 11.9 µg/mL); in data set [6] it was 1.1 µM (≈ 2.63 µg/mL); in data set [9], 1.6 µM (≈ 3.82 µg/mL); in [10] it was 6 µM (≈ 14.3 µg/mL).
Regarding H-GKPRPYSPRPSSHPRPIRV-OH, the MIC in [2] is 0.2 µM; in data set [5] it was 3 µM; in data set [6] it was 0.4 µM; in [9], 0.6 µM; in [10] it was 2 µM.
As to `CC[C@H](C)[C@H](NC(=O)[C@@H]1CCCN1C(=O)[C@H](CCCNC(=N)N)NC(=O)[C@@H]1CCCN1C(=O)[C@H](Cc1cnc[nH]1)NC(=O)[C@H](CO)NC(=O)[C@@H](NC(=O)[C@@H]1CCCN1C(=O)[C@H](CCCNC(=N)N)NC(=O)[C@@H]1CCCN1C(=O)[C@H](CO)NC(=O)[C@H](Cc1ccc(O)cc1)NC(=O)[C@@H]1CCCN1C(=O)[C@H](CCCNC(=N)N)NC(=O)[C@@H]1CCCN1C(=O)[C@H](CCCCN)NC(=O)CN)[C@@H](C)O[C@@H]1O[C@@H](CO)[C@@H](O)[C@@H](O)[C@@H]1NC(C)=O)C(=O)N[C@@H](CCCNC(=N)N)C(=O)N[C@H](C(=O)O)C(C)C` (H-GKPRPYSPRPT(X1)SHPRPIRV-OH), the Drug uptake in [11] is 20%. Also, the minimal inhibitory concentration (MIC) in data set [2] amounted to 0.2 µM (≈ 0.48 µg/mL); in data set [5] it was 1.3 µM (≈ 3.12 µg/mL); in data set [6], 0.3 µM (≈ 0.721 µg/mL); in [9] it was 0.5 µM (≈ 1.2 µg/mL); in [10], 1.8 µM (≈ 4.32 µg/mL). Also, in [4], the Ka stood at 1.94 ×10⁴ /M/s. Also, the Kdiss in [4] was determined as 0.0297 s⁻¹. For the same compound, the Kd in data set [8] amounted to 1530 nM.
Consider `CC[C@H](C)[C@H](NC(=O)[C@@H]1CCCN1C(=O)[C@H](CCCNC(=N)N)NC(=O)[C@@H]1CCCN1C(=O)[C@H](Cc1cnc[nH]1)NC(=O)[C@H](CO)NC(=O)[C@@H](NC(=O)[C@@H]1CCCN1C(=O)[C@H](CCCNC(=N)N)NC(=O)[C@@H]1CCCN1C(=O)[C@H](CO)NC(=O)[C@H](Cc1ccc(O)cc1)NC(=O)[C@@H]1CCCN1C(=O)[C@H](CCCNC(=N)N)NC(=O)[C@@H]1CCCN1C(=O)[C@H](CCCCN)NC(=O)CN)[C@@H](C)O[C@H]1O[C@H](CO)[C@H](O)[C@H](O)[C@H]1NC(C)=O)C(=O)N[C@@H](CCCNC(=N)N)C(=O)N[C@H](C(=O)O)C(C)C` (H-GKPRPYSPRPT(αGalNAc)SHPRPIRV-OH), for which, in [11], the Drug uptake was 16%. Also, the MIC in data set [2] was determined as 0.2 µM (≈ 0.48 µg/mL); in data set [5], 0.3 µM (≈ 0.721 µg/mL); in [6], 0.2 µM (≈ 0.48 µg/mL); in [9], 0.3 µM (≈ 0.721 µg/mL); in data set [10], 0.3 µM (≈ 0.721 µg/mL). Besides, the Ka in [4] turned out to be 2.04 ×10⁴ /M/s. Besides, in [4], the Kdiss was determined as 0.0366 s⁻¹. The equilibrium dissociation constant (Kd) in data set [8] came to 1790 nM.
In the case of `CC[C@@H](C)[C@@H](NC(=O)[C@H]1CCCN1C(=O)[C@@H](CCCNC(=N)N)NC(=O)[C@H]1CCCN1C(=O)[C@@H](Cc1cnc[nH]1)NC(=O)[C@H]1CCCN1C(=O)[C@H]1CCCN1C(=O)[C@H]1CCCN1C(=O)[C@@H](CCCNC(=N)N)NC(=O)[C@H]1CCCN1C(=O)[C@H]1CCCN1C(=O)[C@@H](Cc1ccc(O)cc1)NC(=O)[C@H]1CCCN1C(=O)[C@@H](CCCNC(=N)N)NC(=O)[C@H]1CCCN1C(=O)[C@@H](CCCCN)NC(=O)CN)C(=O)N[C@H](CCCNC(=N)N)C(=O)N[C@@H](C(=O)O)C(C)C`, in [11], the Drug uptake is on record as 2%. Moreover, the MIC in [2], in data set [5], in data set [6], in [9] and in [10] was over 200 µM each time. For the same compound, in data set [3], the inhibition result is “Active”. The Ka in data set [4] is 9.34 ×10⁴ /M/s. The Kdiss in data set [4] worked out at 0.0137 s⁻¹. Also, the inhibition entry in data set [7] and in data set [12] was “inactive” throughout. Also, the Kd in data set [8] is 1470 nM.
As to H-GKPRPYSPRPTSHPRPIRV-OH [DROSOCIN], the MIC was 0.4 µM in [2]; 3 µM in [5]; 0.5 µM in data set [6]; 0.7 µM in data set [9]; 2 µM in data set [10].
